Measured values published in paper PMC7851395 (British Journal of Cancer, 2020).

Tests used:
[1] = system: NSCLC cells (PC-9, A549 or H460); test: cells; assay type: cell-based, human; settings: Supplementary Table 1, cell line (PC-9, A549 or H460) not assignable
Protocol: (§1) The cytotoxicity and viability of human NSCLC cells and normal cells were determined by MTT assay. MTT assay was performed as described previously.[22] MTT assay was used to determine the cell cytotoxicity and viability in human NSCLC cells. Cells (5 × 10^3 cells/well) were plated in 96-well plates and attached overnight. After the proper treatment, the MTT solution was added at 25 µL/well and incubated at 37 °C for 4 h. The formazan crystals were dissolved in 150 µL of DMSO, and the optical density (OD) was measured using a Microplate Reader at 490 nm. The cell viability was calculated by the following formula: viability = (average OD values of treatment wells/average OD values of vehicle control wells) × 100%. And half-maximal inhibitory concentration (IC50) values were determined by GraphPad Pro Prism 7.0.

[2] = system: H460 cells; test: MTT cytotoxicity assay, H460 cells; assay type: cell-based; settings: Homo sapiens, NCI-H460
Protocol: as §1

[3] = system: PC-9 cells; test: MTT cytotoxicity assay, PC-9 cells; assay type: cell-based; settings: Homo sapiens
Protocol: as §1

[4] = system: A549 cells; test: MTT cytotoxicity assay, A549 cells; assay type: cell-based; settings: Homo sapiens, A549
Protocol: as §1

[5] = system: P-CDK9, CDK9, P-STAT3 and S2 RNAPII; test: Western blot of CDK9/STAT3 pathway proteins; assay type: cell-based, human; settings: H460 and PC-9 cells, 12 h; acetyl-bufalin 25-200 nM, SNS-032 200 nM
Protocol: Tissue proteins were extracted with tissue protein lysate buffer. Cells were grown to different densities and extracted with cell protein lysate buffer. The protein was mixed with loading buffer and boiled for 10 min at 100 °C, then loaded and separated by 10% or 12% sodium dodecyl sulfate-polyacrylamide gel (SDS-PAGE) and then transferred onto a PVDF membrane blocking with 5% skim milk. The blots were incubated overnight with specific primary antibodies at 4 °C. On the second day, after washing with TBST (a mixture of tris-buffered saline (TBS) and Tween 20) three times, the […] membranes were incubated with horseradish peroxidase-conjugated secondary antibodies for 1 h. The immunoreactive bands were visualised with enhanced chemiluminescence reagent.

[6] = system: H460 xenograft; assay type: in vivo, BALB/c nude mice; settings: 2 mg/kg i.p. every other day, compared with vehicle
Protocol: All animal procedures were done accordingly with the Institutional laboratory animal research guidelines and were approved by Wenzhou Medical University Animal Policy and Welfare Committee. Female athymic BALB/c nude mice (5–6 weeks old) and immune-defective non-obese […] diabetic severe combined immunodeficiency (NOD-SCID) mice (6–8 weeks old) were purchased from the Vital River Experimental Animal Center (Beijing, China). All the mice were housed under 12 h light–dark cycles at 25 °C and free for water and diet. For the xenograft model, the H460 cells (5 × 10^6 cells were mixed with an equal volume of PBS and Matrigel in 100 μL) were implanted on the hind flank of nude mice. Once tumour volumes reached ~50 mm^3, 24 mice were divided into four experimental groups (six mice per group, no differences in mean body weights or tumour volumes between the groups) and intraperitoneal injection with 2 mg/kg SNS-032 (a recognised CDK9 inhibitor), bufalin and acetyl-bufalin every other day. Tumour volume was measured as V = (L × W × W)/2, in which L and W represent the length and width of tumour. Animals were killed by cervical dislocation once the tumour volume reached 1000 mm^3. The tumours, hearts, livers, kidneys and lungs were removed for use in the histology and western blot analysis.

[7] = target: T1, CDK9 (Homo sapiens, UniProt P50750); test: HuProt human proteome microarray binding; settings: 10 μM on HuProt microarray, CDK9 spots
T1 construct: GST (N); purchased CDI Laboratories, Baltimore, MD Arrayit HuProt v2.0 19 K Human Proteome Microarrays
Protocol: Arrayit HuProt™ v2.0 19 K Human Proteome Microarrays (CDI Laboratories, Baltimore, MD) were blocked for 1 h with 3% BSA at room temperature. Biotinylated bufalin was diluted to 10 μM in blocking buffer and cultured on the proteome microarray at room temperature for 1 h. The arrays were washed with PBST (a mixture of PBS and Tween 20) and incubated with Cy3-Streptavidin at 1:1000 dilution (Sigma-Aldrich) for 1 h at room temperature. Finally, the microarray was spun dry and scanned with a GenePix 4200 A microarray scanner (Molecular Devices, San Jose, CA). Data were analysed by GenePix Pro 6.0 software. The signal-to-noise ratio (SNR) was defined as the ratio of median foreground value minus median background value. The cut-off value of SNR (>1.1) was set.

[8] = system: NIH mice; test: Acute toxicity test; assay type: in vivo; settings: 30 mg/kg single intraperitoneal injection, observed 14 days, n = 10
Protocol: In the acute toxicity test, 30 NIH mice (female, 8 weeks old) were randomly divided into three groups (n = 10), including vehicle group, bufalin group (30 mg/kg) and acetyl-bufalin group (30 mg/kg). The three groups received intraperitoneal injection only on the first day. All the mice were housed under 12 h light–dark cycles at 25 °C and free for water and diet. […] All the mice were sacrificed by cervical dislocation.

[9] = Pharmacokinetic study in rat plasma (LC-MS/MS); assay type: in vivo, S.D. rats; settings: 0.25 mg/kg i.v. and 2 mg/kg i.p.
Protocol: For the pharmacokinetic study, female S.D. rats (body weight 200 ± 10 g) have fasted overnight with free access to water before the experiment. Twelve rats were randomly divided into four groups. The time schedule included eight timepoints, and three S.D. rats were sampled at each time-point. Bufalin and acetyl-bufalin were administered intravenously and intraperitoneally to the rats at the dose of 0.25 mg/kg and 2 mg/kg, respectively. The animals had free access to water during the experiment. Blood samples were collected from the retro-orbital plexus of each rat at 0.083, 0.25, 0.5, 1, 2, 4, 6, 8, 12, 24 h after administration. Plasma was separated from the blood after centrifugation at 6000×g for 10 min and frozen at −20 °C until analysis. In total, 20 µL of standard samples in duplicate, quality control samples in duplicate and rat plasma samples were mixed with 60 µL of ethyl acetate containing IS (200 ng/mL of tolbutamide, 50 ng/mL of propranolol and 500 ng/mL of Dic) in EP tubes. After the mixture was vortexed for 1 min, then centrifuged for 10 min (13,000 rpm, 4 °C), transferred 50 µL supernatant to a 96-well plate with 150 µL purred water, shacked for 10 min and finally injected 5 µL into liquid chromatographic-tandem mass spectrometry (LC-MS/MS) system for analysis.

T1 sequence (P50750 whole entry): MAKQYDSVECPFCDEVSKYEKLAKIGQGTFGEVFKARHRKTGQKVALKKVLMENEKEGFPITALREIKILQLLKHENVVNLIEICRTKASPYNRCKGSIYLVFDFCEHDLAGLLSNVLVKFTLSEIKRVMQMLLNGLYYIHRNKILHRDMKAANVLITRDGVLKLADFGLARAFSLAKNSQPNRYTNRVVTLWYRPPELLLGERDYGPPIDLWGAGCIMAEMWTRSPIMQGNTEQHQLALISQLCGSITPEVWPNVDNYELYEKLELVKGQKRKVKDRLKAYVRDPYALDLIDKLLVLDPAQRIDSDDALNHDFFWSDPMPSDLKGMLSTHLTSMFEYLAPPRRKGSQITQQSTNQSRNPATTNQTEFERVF

CC(=O)O[C@H]1C[C@]2(O)[C@@H]3CC[C@@H]4C[C@@H](O)CC[C@]4(C)[C@H]3CC[C@]2(C)[C@H]1c1ccc(=O)oc1 [Bufotalin]
IC50 ([1]; Homo sapiens): 813 nM

CC(=O)O[C@H]1[C@H]2O[C@]23[C@@H]2CC[C@@H]4C[C@@H](O)CC[C@]4(C)[C@H]2CC[C@]3(C)[C@H]1c1ccc(=O)oc1 [Cinobufagin]
IC50 ([1]; Homo sapiens): 414 nM

CC(=O)O[C@H]1[C@H]2O[C@]23[C@@H]2CC[C@]4(O)C[C@@H](O)CC[C@]4(C)[C@H]2CC[C@]3(C)[C@H]1c1ccc(=O)oc1 [Cinobufotalin]
IC50 ([1]; Homo sapiens): 587 nM

C[C@]12CC[C@H](O)C[C@H]1CC[C@@H]1[C@@H]2CC[C@]2(C)[C@@H](c3ccc(=O)oc3)C[C@H]3O[C@]132 [Resibufogenin]
IC50 [2]: 1060 nM | IC50 ([3]; PC-9): 4640 nM | IC50 [4]: 1130 nM

CC(C)(C)c1cnc(CSc2cnc(NC(=O)C3CCNCC3)s2)o1 [SNS-032, reference compound]
P-CDK9, CDK9, P-STAT3 and S2 RNAPII expressions [5]: significantly dose-dependently decreased | tumour growth (weight and volume) [6]: significantly inhibited tumour growth

C[C@]12CC[C@H](OC(=O)CCCC[C@@H]3SC[C@@H]4NC(=O)N[C@@H]43)C[C@H]1CC[C@@H]1[C@@H]2CC[C@]2(C)[C@H](c3ccc(=O)oc3)CC[C@@]12O [bio-bufalin]
IC50 ([3]; PC-9, 48 h): 77.1 nM | signal-to-noise ratio (SNR) [7]: 6.748

C[C@]12CC[C@H](O)C[C@H]1CC[C@@H]1[C@@H]2CC[C@]2(C)[C@@H](c3ccc(=O)oc3)CC[C@]12O [bufalin, reference compound]
IC50 [2]: 64.7 nM | IC50 ([3]; PC-9, 48 h): 141 nM | mortality (mice died) [8]: 10/10 | IC50 [4]: 83.2 nM | absorption [9]: fast absorption | tumour growth (weight and volume) [6]: significantly inhibited tumour growth

Resibufagin
IC50 [1]: 16000 nM
